{"source": "patent US9821002B2", "about": "“Method for alleviating radiation injury with isorhamnetin-3-O-β-D-glucoside” (Sinotai Oncology Associate., Ltd., priority 2015, dated 2017)", "key": {"NMuMG cells": {"test_system": "NMuMG cells", "assay": "Mitochondrial membrane potential assay (JC-1) after X-ray irradiation", "type": "cell-based, mouse", "conditions": "15 μM, 2 h pretreatment, X-ray 10 Gy, 48 hours, mean ± SEM", "from_the_text": "(§1) Four groups of BNL CL.2 cells (i.e., a normal control group referred to as Normal Control Group 1-A, an X-ray control group referred to as X-Ray Control Group 1-A, and two experimental groups referred to as Experimental Groups 1-A to 2-A), and six groups of NMuMG cells (i.e., a normal control group referred to as Normal Control Group 1-B, an X-ray control group referred to as X-Ray Control Group 1-B, two isorhamnetin groups referred to as Isorhamnetin Groups 1 to 2, and two experimental groups referred to as Experimental Groups 1-B to 2-B), were prepared based on the procedure set forth in “Source and cultivation of cell lines” of “Experimental materials”. BNL CL.2 cells in each group were cultivated using 5 mL of a corresponding medium shown in Table 1 and a 6-cm Petri dish in an amount of 2×10^5 cells per dish. Likewise, NMuMG cells in each group were cultivated using 5 mL of a corresponding medium shown in Table 1 and a 6-cm Petri dish in an amount of 2.5×10^5 cells per dish. The cultivation was conducted in an incubator (37° C., 5% CO2) for 24 hours. […]\n(§2) 1 mL of trypsin-EDTA was added so as to detach the cells from the bottom of the Petri dish. […] Mitochondrial membrane potential assay was conducted using BD Accuri™ C6 flow cytometry, and the percentage of mitochondrial membrane potential depolarization (%) was calculated using BD Accuri™ C6 software."}, "BNL CL.2 cells": {"test_system": "BNL CL.2 cells", "assay": "Mitochondrial membrane potential assay (JC-1) after X-ray irradiation", "type": "cell-based, mouse", "conditions": "5 μM, 2 h pretreatment, X-ray 15 Gy, 120 hours, mean ± SEM", "from_the_text": "as §1, §2"}}, "data": [{"smiles": "COc1cc(-c2oc3cc(O)cc(O)c3c(=O)c2O[C@@H]2O[C@H](CO)[C@@H](O)[C@H](O)[C@H]2O)ccc1O", "note": "[isorhamnetin-3-O-β-D-glucoside]", "values": [{"measurement": "Percentage of mitochondrial membrane potential depolarization", "setting": "NMuMG cells", "result": "30.05 ± 1.07", "unit": "%"}, {"measurement": "Percentage of mitochondrial membrane potential depolarization", "setting": "BNL CL.2 cells", "result": "16 ± 2.97", "unit": "%"}]}]}
